Reference: ChEMBL document CHEMBL1201862, “PubChem BioAssay data set” (2004)
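These data come from cells grown in 96-well plates and exposed to compound for 48 hours at five concentrations. GI50 marks 50% less growth.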 Activity calls are given as the source filed them. No stated cut-off is given here; in the data, active = GI50 up to about 1.1 µM and inactive = higher.

Tests used:
Experiment in all cases: NCI anticancer screen, dose series, 48 h
K562 = tested on: K562
M14 = tested on: M14
BT-549 = tested on: BT-549
HOP-92 = tested on: HOP-92
T47D = tested on: T47D
SNB-19 = tested on: SNB-19
PC-3 = tested on: PC-3
UACC-62 = tested on: UACC-62
IGROV-1 = tested on: IGROV-1
DU-145 = tested on: DU-145
HOP-62 = tested on: HOP-62
SK-MEL-2 = tested on: SK-MEL-2
Malme-3M = tested on: Malme-3M
OVCAR-4 = tested on: OVCAR-4
OVCAR-3 = tested on: OVCAR-3
NCI/ADR-RES = tested on: NCI/ADR-RES
CCRF-CEM = tested on: CCRF-CEM
NCI-H522 = tested on: NCI-H522
SF-295 = tested on: SF-295
CAKI-1 = tested on: CAKI-1

Measured: GI50

COc1ccc(C(=O)Cn2c(C(=O)/C=C/c3ccco3)nc3ccccc32)cc1
inactive: K562 22.2 µM | M14 36.6 µM | BT-549 34.4 µM | HOP-92 51.4 µM | T47D 66.7 µM | SNB-19 39.2 µM | PC-3 36.3 µM | UACC-62 27.4 µM | IGROV-1 44.1 µM | DU-145 38.5 µM | HOP-62 46 µM | SK-MEL-2 17.5 µM | Malme-3M 35.2 µM | OVCAR-4 37.1 µM | OVCAR-3 24.9 µM | NCI/ADR-RES 25.9 µM | CCRF-CEM 25.1 µM

CC(=O)N[C@@H](Cc1ccc(O)cn1)C(=O)NCc1cccc(Cl)c1
inactive: K562 > 100 µM | NCI-H522 > 100 µM | M14 > 100 µM | BT-549 > 100 µM | T47D > 100 µM | SNB-19 > 100 µM | SF-295 > 100 µM | PC-3 > 100 µM | CAKI-1 > 100 µM | UACC-62 > 100 µM | IGROV-1 > 100 µM | DU-145 > 100 µM | HOP-62 > 100 µM | SK-MEL-2 > 100 µM | OVCAR-4 > 100 µM | OVCAR-3 > 100 µM | NCI/ADR-RES > 100 µM | CCRF-CEM > 100 µM

COc1cc(OC)cc(-c2nc3cc(F)ccc3s2)c1
inactive: NCI-H522 19 µM | M14 37.3 µM | BT-549 11 µM | T47D 10.5 µM | SNB-19 16.9 µM | SF-295 10.6 µM | PC-3 39.5 µM | CAKI-1 40.2 µM | UACC-62 16.4 µM | IGROV-1 12.3 µM | DU-145 26.1 µM | SK-MEL-2 23.6 µM | Malme-3M 55 µM | OVCAR-4 > 100 µM | OVCAR-3 26.2 µM | NCI/ADR-RES > 100 µM | CCRF-CEM > 100 µM

C=C(C)[C@H]1CC23C(=O)C(C(=O)C(C)C)=C(O)[C@](C)(C[C@H]2C1(C)C)C3=O [LALIBINONE B]
inactive: K562 20.5 µM | NCI-H522 16.5 µM | M14 16.1 µM | BT-549 17.5 µM | T47D 30.9 µM | SNB-19 25.8 µM | SF-295 15.1 µM | PC-3 12.6 µM | CAKI-1 22 µM | UACC-62 16.3 µM | IGROV-1 12.5 µM | DU-145 35.7 µM | HOP-62 15.6 µM | SK-MEL-2 15.9 µM | Malme-3M 14.3 µM | OVCAR-4 12.6 µM | OVCAR-3 16.1 µM | NCI/ADR-RES 13.1 µM | CCRF-CEM 8.3 µM

COc1ccc2cc1Oc1ccc(cc1)C(Sc1ccccc1)CCOC(=O)CC2 (configuration not stated)
inactive: K562 82.8 µM | NCI-H522 > 100 µM | M14 > 100 µM | BT-549 > 100 µM | T47D 11.5 µM | SNB-19 > 100 µM | SF-295 > 100 µM | PC-3 > 100 µM | CAKI-1 > 100 µM | UACC-62 > 100 µM | IGROV-1 > 100 µM | DU-145 > 100 µM | HOP-62 > 100 µM | SK-MEL-2 > 100 µM | Malme-3M > 100 µM | OVCAR-4 > 100 µM | OVCAR-3 > 100 µM | NCI/ADR-RES > 100 µM | CCRF-CEM > 100 µM

COC(=O)/N=[N+](\[O-])C(c1ccccc1)c1ccccc1
inactive: K562 47.8 µM | NCI-H522 > 100 µM | M14 31.8 µM | BT-549 > 100 µM | T47D 40.2 µM | SNB-19 > 100 µM | PC-3 60.4 µM | CAKI-1 76.6 µM | UACC-62 51.6 µM | IGROV-1 61.8 µM | DU-145 42.6 µM | SK-MEL-2 43.2 µM | Malme-3M 27.1 µM | OVCAR-4 34.8 µM | OVCAR-3 98.9 µM | NCI/ADR-RES 40.1 µM | CCRF-CEM 82 µM
